Molecules are shown by their SMILES.

This assay deals with human recombinant PAK1-KD protein (Homo sapiens, UniProt Q13153). Briefly: PAK1-KD (Kinase Domain) IC50 Zlyte Assay (FRET peptide substrate phosphorylation). The following applies: Z'-LYTE, Biological Example 1.
human recombinant PAK1-KD protein, sequence (Q13153 270-521 limits assumed): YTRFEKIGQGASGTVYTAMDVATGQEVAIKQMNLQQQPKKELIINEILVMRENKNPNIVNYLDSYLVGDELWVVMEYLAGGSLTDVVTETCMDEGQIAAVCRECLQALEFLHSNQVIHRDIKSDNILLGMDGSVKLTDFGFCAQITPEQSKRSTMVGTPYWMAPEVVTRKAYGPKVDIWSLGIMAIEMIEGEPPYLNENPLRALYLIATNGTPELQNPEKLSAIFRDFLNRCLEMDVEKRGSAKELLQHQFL
Excerpt: PAK1-KD (Kinase Domain) IC50 Zlyte Assay Protocol
Activity of human recombinant PAK1-KD protein may be assessed in vitro by assay of the phosphorylation of a FRET peptide substrate. Catalytically active human recombinant PAK1-KD protein is obtained by purification from Tini cells infected with a human PAK1-KD recombinant baculovirus expression vector.
The activity/inhibition of PAK1-KD was estimated by measuring the phosphorylation of a FRET peptide substrate (Ser/Thr19) labeled with Coumarin and Fluorescein using Z′-LYTE™ assay (Invitrogen). The peptide substrate is a consensus sequence ([sequence]) based on various PAK substrates reported in the scientific literature. […] Incubations were carried out at 22° C. in black polypropylene 384-well plates (Corning Costar).
Take `CCc1cc(-c2cccc(C)n2)ccc1-c1cc2cnc(NC3COC3)nc2n(C[C@H]2CNCCO2)c1=O` [Example I-193, 6-[2-ethyl-4-(6-methyl-2-pyridyl)phenyl]-8-[[(2R)-morpholin-2-yl]methyl]-2-(oxetan-3-ylamino)pyrido[2,3-d]pyrimidin-7-one]: the Ki was found to be 0.0208 µM. As for `Cc1cncc(-c2ccc(-c3cc4cnc(NC5COC5)nc4n(C[C@H]4CNCCO4)c3=O)c(Cl)c2)n1` [Example I-146, 6-[2-Chloro-4-(6-methylpyrazin-2-yl)phenyl]-8-[[(2R)-morpholin-2-yl]methyl]-2-(oxetan-3-ylamino)pyrido[2,3-d]pyrimidin-7-one], the Ki is 0.0107 µM. As for `CNc1ncc2cc(-c3ccc(-c4cccc(C)n4)cc3Cl)c(=O)n(CCOCCN)c2n1` [Example I-96, 8-[2-(2-Aminoethoxy)ethyl]-[2-chloro-4-(6-methyl-2-pyridyl)phenyl]-2-(methylamino)pyrido[2,3-d]pyrimidin-7-one], the figure is 0.0014 µM; as for `CCNc1ncc2cc(-c3ccc(-c4cncc(C)n4)cc3Cl)c(=O)n(CCN3CCNC(=O)C3)c2n1` [Example I-130, 6-[2-chloro-4-(6-methylpyrazin-2-yl)phenyl]-2-(ethylamino)-8-[2-(3-oxopiperazin-1-yl)ethyl]pyrido[2,3-d]pyrimidin-7-one], 0.0522 µM; as for `CCNc1ncc2cc(-c3ccc(-c4cncc(C)n4)cc3Cl)c(=O)n(CCN3CCN(C4COC4)CC3)c2n1` [Example I-23, 6-(2-chloro-4-(6-methylpyrazin-2-yl)phenyl)-2-(ethylamino)-8-(2-(4-(oxetan-3-yl)piperazin-1-yl)ethyl)pyrido[2,3-d]pyrimidin-7(8H)-one], 0.136 µM. For `Cc1cccc(-c2ccc(-c3cc4cnc(N)nc4n(CCCN)c3=O)c(C)c2)n1` [Example I-72, 2-Amino-8-(3-aminopropyl)-6-[2-methyl-4-(6-methyl-2-pyridyl)phenyl]pyrido[2,3-d]pyrimidin-7-one] the value was 0.0211 µM. For the compound `CCNc1ncc2cc(-c3ccc(-c4cncc(C)n4)cc3Cl)c(=O)n(CCC3CCNC3)c2n1` (centres unmarked) [Example I-57, 6-(2-Chloro-4-(6-methylpyrazin-2-yl)phenyl)-2-(ethylamino)-8-(2-(pyrrolidin-3-yl)ethyl)pyrido[2,3-d]pyrimidin-7(8H)-one], the Ki came to 0.0041 µM. Turning to `CCNc1ncc2cc(-c3ccc(-c4cncc(C)n4)cc3Cl)c(=O)n(CC3C4CN(C)CC43)c2n1` (centres unmarked) [Example I-128, 6-[2-chloro-4-(6-methylpyrazin-2-yl)phenyl]-2-(ethylamino)-8-[(3-methyl-3-azabicyclo[3.1.0]hexan-6-yl)methyl]pyrido[2,3-d]pyrimidin-7-one], the Ki was 0.0118 µM. As for `CNc1ncc2cc(-c3ccc(-c4cccc(C)n4)cc3Cl)c(=O)n(CCOC3CN(C)C3)c2n1` [Example I-196, 6-[2-chloro-4-(6-methyl-2-pyridyl)phenyl]-2-(methylamino)-8-[2-(1-methylazetidin-3-yl)oxyethyl]pyrido[2,3-d]pyrimidin-7-one], the figure is 0.0185 µM.

`CNc1ncc2cc(-c3ccc(-c4nc(C)cs4)cc3Cl)c(=O)n(C[C@H]3CNCCO3)c2n1` [Example I-189, 6-[2-chloro-4-(4-methylthiazol-2-yl)phenyl]-2-(methylamino)-8-[[(2R)-morpholin-2-yl]methyl]pyrido[2,3-d]pyrimidin-7-one]: the Ki stood at 0.0258 µM. For `CCNc1ncc2cc(-c3ccc(-c4cccc(C)n4)cc3Cl)c(=O)n(CCOC3CNC3)c2n1` [Example I-30, 8-[2-(azetidin-3-yloxy)ethyl]-6-[2-chloro-4-(6-methyl-2-pyridyl)phenyl]-2-(ethylamino)pyrido[2,3-d]pyrimidin-7-one] the value was 0.0099 µM. For `CNc1ncc2cc(-c3ccc(-c4cccc(C)n4)cc3C)c(=O)n(CC3C4CN(C)CC43)c2n1` (centres unmarked) [Example I-186, 2-(methylamino)-8-[(3-methyl-3-azabicyclo[3.1.0]hexan-6-yl)methyl]-6-[2-methyl-4-(6-methyl-2-pyridyl)phenyl]pyrido[2,3-d]pyrimidin-7-one] the value was 0.0119 µM; for `CCNc1ncc2cc(-c3ccc(-c4cncc(C)n4)cc3Cl)c(=O)n(CC3(O)CCN(C)CC3)c2n1` [Example I-105, 6-[2-Chloro-4-(6-methylpyrazin-2-yl)phenyl]-2-(ethylamino)-8-[(4-hydroxy-1-methyl-4-piperidyl)methyl]pyrido[2,3-d]pyrimidin-7-one], 0.114 µM; for `Cc1cncc(-c2ccc(-c3cc4cnc(N)nc4n(CCCCCN)c3=O)c(Cl)c2)n1` [Example I-88, 2-Amino-8-(5-aminopentyl)-6-[2-chloro-4-(6-methylpyrazin-2-yl)phenyl]pyrido[2,3-d]pyrimidin-7-one], 0.313 µM. As for `CNc1ncc2cc(-c3ccc(-c4cncc(C)n4)cc3Cl)c(=O)n(CCC3CNC(=O)C3)c2n1` (centres unmarked) [Example I-109, 6-[2-Chloro-4-(6-methylpyrazin-2-yl)phenyl]-2-(methylamino)-8-[2-(5-oxopyrrolidin-3-yl)ethyl]pyrido[2,3-d]pyrimidin-7-one], the figure is 0.0433 µM; as for `CNc1ncc2cc(-c3ccc(-c4cncc(C)n4)cc3Cl)c(=O)n(CC(=O)N3CCC[C@H]3CN)c2n1` [Example I-154, 8-[2-[(2S)-2-(Aminomethyl)pyrrolidin-1-yl]-2-oxo-ethyl]-6-[2-chloro-4-(6-methylpyrazin-2-yl)phenyl]-2-(methylamino)pyrido[2,3-d]pyrimidin-7-one], 0.0394 µM; as for `CNc1ncc2cc(-c3ccc(-c4cccc(C)n4)cc3C)c(=O)n(CCOCCN)c2n1` [Example I-97, 8-[2-(2-Aminoethoxy)ethyl]-2-(methylamino)-6-[2-methyl-4-(6-methyl-2-pyridyl)phenyl]pyrido[2,3-d]pyrimidin-7-one], 0.0036 µM. Consider `Cc1cccc(-c2ccc(-c3cc4cnc(NC(C)C)nc4n(C[C@H]4CC[C@H](N)CC4)c3=O)c(Cl)c2)n1` [Example I-32, 8-[(4-aminocyclohexyl)methyl]-6-[2-chloro-4-(6-methyl-2-pyridyl)phenyl]-2-(isopropylamino)pyrido[2,3-d]pyrimidin-7-one], for which the Ki is 0.0005 µM. As for `CNc1ncc2cc(-c3ccc(-c4cncc(C)n4)cc3Cl)c(=O)n(CC[C@@H](O)CO)c2n1` [Example I-80, 6-(2-Chloro-4-(6-methylpyrazin-2-yl)phenyl)-8-(3,4-dihydroxybutyl)-2-(methylamino)pyrido[2,3-d]pyrimidin-7(8H)-one], the Ki turned out to be 0.104 µM. With `CCNc1ncc2cc(-c3ccc(-c4cncc(C)n4)cc3Cl)c(=O)n(C3COC4(CCNCC4)C3)c2n1` (centres unmarked) [Example I-59, 6-(2-Chloro-4-(6-methylpyrazin-2-yl)phenyl)-2-(ethylamino)-8-(1-oxa-8-azaspiro[4.5]decan-3-yl)pyrido[2,3-d]pyrimidin-7(8H)-one], the Ki worked out at 0.0244 µM. Turning to `CNc1ncc2cc(-c3ccc(-c4cccc(C)n4)cc3Cl)c(=O)n(CC(=O)N3CCNCC3)c2n1` [Example I-107, 6-[2-Chloro-4-(6-methyl-2-pyridyl)phenyl]-2-(methylamino)-8-(2-oxo-2-piperazin-1-yl-ethyl)pyrido[2,3-d]pyrimidin-7-one], the Ki amounted to 0.0143 µM. As for `Cc1cncc(-c2ccc(-c3cc4cnc(NC(C)C)nc4n(CCC4CCNC4=O)c3=O)c(Cl)c2)n1` (centres unmarked) [Example I-100, 6-[2-Chloro-4-(6-methylpyrazin-2-yl)phenyl]-2-(isopropylamino)-8-[2-(2-oxopyrrolidin-3-yl)ethyl]pyrido[2,3-d]pyrimidin-7-one], the figure is 0.0185 µM. Regarding `Cc1cncc(-c2ccc(-c3cc4cnc(NC(C)C)nc4n(CCC4CNC(=O)C4)c3=O)c(Cl)c2)n1` (single isomer, unassigned) [Example I-98, 6-[2-Chloro-4-(6-methylpyrazin-2-yl)phenyl]-2-(isopropylamino)-8-[2-(5-oxopyrrolidin-3-yl)ethyl]pyrido[2,3-d]pyrimidin-7-one], the Ki was found to be 0.0218 µM. For `CNc1ncc2cc(-c3ccc(-c4cncc(C)n4)cc3Cl)c(=O)n(CC(=O)N3CCC[C@@H]3CN)c2n1` [Example I-153, 8-[2-[(2R)-2-(Aminomethyl)pyrrolidin-1-yl]-2-oxo-ethyl]-6-[2-chloro-4-(6-methylpyrazin-2-yl)phenyl]-2-(methylamino)pyrido[2,3-d]pyrimidin-7-one] the value was 0.0085 µM; for `Cc1cccc(-c2ccc(-c3cc4cnc(NC5COC5)nc4n(CCCO)c3=O)c(C)c2)n1` [Example I-168, 8-(3-hydroxypropyl)-6-[2-methyl-4-(6-methyl-2-pyridyl)phenyl]-2-(oxetan-3-ylamino)pyrido[2,3-d]pyrimidin-7-one], 0.0157 µM. For the compound `Cc1cccc(-c2ccc(-c3cc4cnc(NC5COC5)nc4n(C[C@H]4CC[C@H](N)CC4)c3=O)c(Cl)c2)n1` [Example I-33, 8-(((1r,4r)-4-aminocyclohexyl)methyl)-6-(2-chloro-4-(6-methylpyridin-2-yl)phenyl)-2-(oxetan-3-ylamino)pyrido[2,3-d]pyrimidin-7(8H)-one], the Ki was found to be 0.0005 µM. As for `CNc1ncc2cc(-c3ccc(-c4csc(C5CC5)n4)cc3Cl)c(=O)n(C[C@H]3CNCCO3)c2n1` [Example I-185, 6-[2-chloro-4-(2-cyclopropylthiazol-4-yl)phenyl]-2-(methylamino)-8-[[(2R)-morpholin-2-yl]methyl]pyrido[2,3-d]pyrimidin-7-one], the figure is 0.0473 µM; as for `Cc1cccc(-c2ccc(-c3cc4cnc(NC5COC5)nc4n(CC[C@H]4OC[C@@H](N)CO4)c3=O)c(Cl)c2)n1` [Example I-135, 8-[2-(5-amino-1,3-dioxan-2-yl)ethyl]-6-[2-chloro-4-(6-methyl-2-pyridyl)phenyl]-2-(oxetan-3-ylamino)pyrido[2,3-d]pyrimidin-7-one], 0.000654 µM; as for `CNc1ncc2cc(-c3ccc(-c4cncc(C)n4)cc3Cl)c(=O)n(C[C@H]3OC[C@H](NC)CO3)c2n1` [Example I-178, 6-[2-Chloro-4-(6-methylpyrazin-2-yl)phenyl]-2-(methylamino)-8-[[5-(methylamino)-1,3-dioxan-2-yl]methyl]pyrido[2,3-d]pyrimidin-7-one], 0.0135 µM.

The term Ki denotes the dissociation constant of the complex between target and ligand, obtained from inhibition or displacement.

Values taken from patent publication US20150031674A1, “SERINE/THREONINE KINASE INHIBITORS” (GENENTECH, INC., priority 2013, published 2015).
